Data from US9475824B2, “Fused pyrimidines as inhibitors of p97 complex” (Cleave Biosciences, Inc., priority 2012, dated 2016).

What was measured:
in vitro = conditions: human, Caco-2, pH 7.4
p97 = p97 (Homo sapiens, UniProt P55072); test: P97 ATPase biochemical assay (ADP Glo); conditions: 20 nM p97, 20 μM ATP, 37° C. 15 minutes
Description: The ATPase assay is performed according the following protocol: Purified enzyme (20 nM p97), substrate (20 μM ATP) and a dose titration of compounds are mixed in buffer (50 mM TRIS pH 7.5, 20 mM MgCl2, 0.02% TX-100, 1 mM DTT, 0.2% (v/v) glycerol) and incubated at 37° C. for 15 minutes. The reaction is terminated and the level of product generated is measured using the ADP Glo Assay Kit (Promega, Madison Wis.). Plotting product generated versus compound concentration and using a four-parameter fit model generates an IC50 value for each compounds.
The p97 assay is an initial screening assay used to determine inhibitory activity of the fused pyrimidine compounds of the invention against the p97 complex. As discussed above, inhibition of activity of the p97 proteosome complex can enable apoptosis and cause elimination of neoplastic cells (cancer cells). The method follows that of Christianson in Nat.
Assay Buffer is a mixture of 50 mM TRIS pH 7.5, 20 mM MgCl2, 0.02% TX-100, 1 mM DTT and 0.2% (v/v) Glycerol. […] The identification kit is an ADP glo kit (Promega): stop buffer, detection reagent.
0.5 μL compound serial diluted in DMSO (Final Conc. 10%)
2 μL ATP (Final Conc.=20 uM, diluted in assay buffer)
2.5 μL p97 (Final Conc.=20 nM, diluted in assay buffer)
Incubate at 37 degC for 15 min.
Add 5 μL of stop buffer, incubate at RT for 40 min.
Add 10 μL of detection reagent, incubate at RT for 30 min.
Read luminescence on Envision plate reader.
Plot normalized luminescence data against log-transformed concentration values and fit to a sigmoidal curve to determine IC50 values (done in Collaborative Drug Discovery software).

K48-Ub, A549 cells = test: A549 K48 cell intensity (immunofluorescence, high content imaging); assay type: cell-based; conditions: Homo sapiens, 6 hr compound incubation
Description: Image-analysis is used to generate quantitative data from these assays that can be fit to a four-parameter sigmoid curve to derive IC50 values. Substrates of the ubiquitin-proteasome system, such as p53, are monitored after tumor cell lines are incubated with compounds for several hours. Accumulation of these proteins indicates an inhibition of proteasome-mediated degradation. Accumulation of lysine-48 chain linkage of poly-ubiquitin is also monitored by immunofluorescence as an indicator of ubiquitin-proteasome system inhibition. Both LC3 and SQSTM1 are mediators of autophagy. The localization and amounts of these proteins are monitored by immunofluorescence and report on the activity and inhibition of autophagy in response to p97 inhibition.
Day 1, Cell Plating to Establish Colonies of Cancer Cells • Cell Plating: • Seed cells ˜16 hrs prior to compound treatment • Plate 25 μL of A549 cells in every well of 384-well plate using multidrop. • Two (2) black plates for IF at 2500 cells/well • Let plate sit at room temp for 10-15 minutes prior to putting in incubator to allow cells to stick in middle of plate. • One (1) white plate for viability at 500 cells/well.

Chain of p97 (P55072 whole entry): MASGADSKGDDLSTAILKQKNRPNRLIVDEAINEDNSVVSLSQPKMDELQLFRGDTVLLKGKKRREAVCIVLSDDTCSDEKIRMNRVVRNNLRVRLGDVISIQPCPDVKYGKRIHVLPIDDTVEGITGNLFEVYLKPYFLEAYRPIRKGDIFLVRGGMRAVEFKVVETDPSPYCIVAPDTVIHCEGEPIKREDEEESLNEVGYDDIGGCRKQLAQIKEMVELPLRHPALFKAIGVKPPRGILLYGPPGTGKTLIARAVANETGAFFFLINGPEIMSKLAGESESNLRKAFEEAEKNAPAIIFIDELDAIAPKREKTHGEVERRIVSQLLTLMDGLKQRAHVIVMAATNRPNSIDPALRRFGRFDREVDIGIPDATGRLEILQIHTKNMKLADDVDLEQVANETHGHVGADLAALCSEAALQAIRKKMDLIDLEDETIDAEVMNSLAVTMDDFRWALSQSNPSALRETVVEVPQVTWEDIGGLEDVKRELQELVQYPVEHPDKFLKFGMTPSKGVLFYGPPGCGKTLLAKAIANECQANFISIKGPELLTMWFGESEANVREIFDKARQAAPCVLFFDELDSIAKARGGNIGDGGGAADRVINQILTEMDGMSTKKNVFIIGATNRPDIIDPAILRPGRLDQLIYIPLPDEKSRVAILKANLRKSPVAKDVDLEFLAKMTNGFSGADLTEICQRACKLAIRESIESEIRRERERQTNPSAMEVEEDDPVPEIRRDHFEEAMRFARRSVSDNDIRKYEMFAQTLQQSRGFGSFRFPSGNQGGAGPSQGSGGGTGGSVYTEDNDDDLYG

Peff A B, Range (Caco-2 cell monolayer; pH 7.4 Caco-2, A to B) | Peff B A, Range (Caco-2 cell monolayer; pH 7.4 Caco-2, B to A) | Papp A→B at 90 min, 100 μM (in vitro) | Papp B→A at 90 min, 100 μM (in vitro) | IC50 (p97) | IC50 (K48-Ub, A549 cells) | SMILES
– | – | – | – | < 0.03 µM | < 10 µM | Cc1cc2c(C(N)=O)cccc2n1-c1nc2c(c(NCc3ccccc3)n1)CCCC2 [compound 90, 1-[4-(benzylamino)-5,6,7,8-tetrahydroquinazolin-2-yl]-2-methyl-1H-indole-4-carboxamide]
– | – | – | – | < 0.1 µM | < 10 µM | Cc1nc2c(C(N)=O)cccc2n1-c1nc2c(c(NCc3ccccc3)n1)COCC2 [compound 93, 1-[4-(benzylamino)-5H,7H,8H-pyrano[4,3-d]pyrimidin-2-yl]-2-methyl-1H-1,3-benzodiazole-4-carboxamide]
– | – | – | – | < 0.1 µM | < 10 µM | CNC(=O)c1cccc2c1cc(C)n2-c1nc2c(c(NCc3ccccc3)n1)COCC2 [compound 97, 1-[4-(benzylamino)-5H,7H,8H-pyrano[4,3-d]pyrimidin-2-yl]-N,2-dimethyl-1H-indole-4-carboxamide]
– | – | – | – | < 1 µM | < 10 µM | Cc1cc2c(C(=O)NCCN)cccc2n1-c1nc2c(c(NCc3ccccc3)n1)COCC2 [compound 105, N-(2-aminoethyl)-1-[4-(benzylamino)-5H,7H,8H-pyrano[4,3-d]pyrimidin-2-yl]-2-methyl-1H-indole-4-carboxamide]

More lines, now with the values behind:

SMILES | Peff A B, Range (Caco-2 cell monolayer; pH 7.4 Caco-2, A to B) | Peff B A, Range (Caco-2 cell monolayer; pH 7.4 Caco-2, B to A) | Papp A→B at 90 min, 100 μM (in vitro) | Papp B→A at 90 min, 100 μM (in vitro) | IC50 (p97) | IC50 (K48-Ub, A549 cells)
CC(C)NCC(O)COc1cccc2ccccc12 (centres unmarked) [Propranolol] | 18.50-36.80 ×E−6 cm/sec | 16.30-31.40 ×E−6 cm/sec | 28.5 ×10⁻⁶ cm/s | 20.9 ×10⁻⁶ cm/s | – | –
NCc1cc2c(C(N)=O)cccc2n1-c1nc2c(c(NCc3ccccc3)n1)CCCC2 [compound 101, 2-(aminomethyl)-1-[4-(benzylamino)-5,6,7,8-tetrahydroquinazolin-2-yl]-1H-indole-4-carboxamide] | – | – | – | – | < 0.03 µM | < 10 µM
CCNC(=O)c1cccc2c1cc(C)n2-c1nc2c(c(NCc3ccccc3)n1)CCCC2 [compound 134, 1-[4-(benzylamino)-5,6,7,8-tetrahydroquinazolin-2-yl]-N-ethyl-2-methyl-1H-indole-4-carboxamide] | – | – | – | – | < 0.03 µM | < 10 µM
Cc1cc2c(C#N)cccc2n1-c1nc2c(c(NCc3ccccc3)n1)CNCC2 [compound 42, 1-[4-(benzylamino)-5H,6H,7H,8H-pyrido[4,3-d]pyrimidin-2-yl]-2-methyl-1H-indole-4-carbonitrile] | – | – | – | – | < 0.1 µM | < 10 µM
CNC(=O)c1cccc2c1cc(C)n2-c1nc2c(c(NCc3ccccc3)n1)CCCC2 [compound 132, 1-[4-(benzylamino)-5,6,7,8-tetrahydroquinazolin-2-yl]-N-methyl-2-methyl-1H-indole-4-carboxamide] | – | – | – | – | < 0.03 µM | < 10 µM
